Assay results: patent US20020035061A1, “COMPOSITIONS AND METHODS FOR TREATING INFECTIONS USING CATIONIC PEPTIDES ALONE OR IN COMBINATION WITH ANTIBIOTICS” (priority 1996, published 2002)
Read-outs that look alike come from different tables or passages of the source.

Key:
Type in all cases: cell-based
E. coli = settings: for Peptide MIC values: agarose dilution
E. faecalis = E. faecalis strain EFS002
E. faecium = tested on: E. faecium
H. influenzae = assay: Agarose dilution assay (MIC); settings: H. influenzae strain HIN002
P. aeruginosa = settings: for Peptide MIC values: agarose dilution
P. vulgaris = assay: Agarose dilution assay (MIC); settings: agarose dilution; P. vulgaris ATCC 13315
S. aureus = settings: for Peptide MIC values: agarose dilution
S. marcescens = settings: for Peptide MIC values: agarose dilution
S. pneumoniae = assay: Agarose dilution assay (MIC); settings: for Peptide MIC values: agarose dilution
bacterial isolates = assay: microbe, parasite or virus in culture
[1] = tested on: inherently resistant microorganisms; assay: microbe, parasite or virus in culture; settings: S. aureus
[2] = tested on: microorganisms with acquired resistance; assay: microbe, parasite or virus in culture; settings: for Peptide MIC Alone: Tobramycin section; for FIC: peptide + Tobramycin
[3] = S. aureus SA025 (also SA025 MRSA)

ILKKWPWWPWK [MBI 11G13CN]
64 µg/mL: Peptide MIC values (E. coli; E. coli ATCC 25922) | MIC (E. faecalis) | Peptide MIC values (S. aureus; S. aureus MRSA13) | Peptide MIC Alone (bacterial isolates; E. coli ECO5, Mupirocin section) | Peptide MIC Alone (bacterial isolates; E. coli SBECO2, Mupirocin section) | Tobramycin MIC + Peptide (bacterial isolates; S. maltophilia SMA029) | Tobramycin MIC + Peptide (bacterial isolates; S. maltophilia SMA030)
32 µg/mL: MIC (E. coli; E. coli strain ECO002) | MIC (E. coli; E. coli strain SBECO3) | Peptide MIC values (E. coli; E. coli ESS) | Peptide MIC values (E. faecium; agarose dilution) | Peptide MIC values (S. aureus; S. aureus SA206) | Peptide MIC + Tobramycin (bacterial isolates; A. baumannii ABI001) | Peptide MIC + Tobramycin ([2]; A. baumannii ABI001)
16 µg/mL: Peptide MIC values (E. coli; E. coli NCTC 10418) | MIC (E. faecium; E. faecium strain EFM002) | Peptide MIC values (S. aureus; S. aureus MRSA17) | Peptide MIC + Tobramycin (bacterial isolates; P. aeruginosa PA022) | Peptide MIC + Tobramycin ([2]; P. aeruginosa PA022)
2 µg/mL: Peptide MIC + Tobramycin (bacterial isolates; [3]) | Peptide MIC + Tobramycin [1]
1 µg/mL: Peptide MIC values (S. aureus; S. aureus ATCC 29213)
0.125 µg/mL: Tobramycin MIC + Peptide (bacterial isolates; [3]) | Peptide MIC + Tobramycin (bacterial isolates; S. maltophilia SMA029) | Peptide MIC + Tobramycin (bacterial isolates; S. maltophilia SMA030)
0.43: FIC (bacterial isolates; peptide + Mupirocin, E. coli ECO5)
0.56: FIC (bacterial isolates; peptide + Tobramycin, P. aeruginosa PA022) | FIC ([2]; P. aeruginosa PA022)
>128 µg/mL: MIC (H. influenzae) | MIC (P. aeruginosa; P. aeruginosa strain PA004) | Peptide MIC values (P. aeruginosa; P. aeruginosa ATCC 27853) | Peptide MIC values (P. aeruginosa; P. aeruginosa NCTC 10662) | Peptide MIC values (P. vulgaris) | MIC (S. marcescens; S. marcescens strain SBSM1) | Peptide MIC values (S. marcescens; S. marcescens SM76) | Peptide MIC values (S. marcescens; S. marcescens SM82) | Peptide MIC values (S. pneumoniae; S. pneumoniae 60120) | Peptide MIC Alone (bacterial isolates; P. aeruginosa PA022, Tobramycin section) | Peptide MIC Alone (bacterial isolates; S. maltophilia SMA029, Tobramycin section) | Peptide MIC Alone (bacterial isolates; S. maltophilia SMA030, Tobramycin section) | Peptide MIC Alone ([2]; P. aeruginosa PA022)
0.50: FIC (bacterial isolates; peptide + Tobramycin, A. baumannii ABI001) | FIC (bacterial isolates; peptide + Tobramycin, S. aureus SA025 (also SA025 MRSA)) | FIC (bacterial isolates; peptide + Tobramycin, S. maltophilia SMA029) | FIC (bacterial isolates; peptide + Tobramycin, S. maltophilia SMA030) | FIC ([1]; peptide + Tobramycin) | FIC ([2]; A. baumannii ABI001)
0.16: FIC (bacterial isolates; peptide + Mupirocin, E. coli SBECO2)
128 µg/mL: MIC (S. pneumoniae; S. pneumoniae strain SBSPN3) | Peptide MIC values (S. pneumoniae; S. pneumoniae 406LE8) | Peptide MIC values (S. pneumoniae; S. pneumoniae ATCC 49619) | Peptide MIC Alone (bacterial isolates; A. baumannii ABI001, Tobramycin section) | Peptide MIC Alone ([2]; A. baumannii ABI001)
30 µg/mL: Mupirocin MIC + Peptide (bacterial isolates; E. coli ECO5) | Mupirocin MIC + Peptide (bacterial isolates; E. coli SBECO2)
8 µg/mL: Peptide MIC values (S. aureus; S. aureus MRSA9) | Peptide MIC + Mupirocin (bacterial isolates; E. coli ECO5) | Peptide MIC + Mupirocin (bacterial isolates; E. coli SBECO2)
4 µg/mL: MIC (S. aureus; S. aureus strain SA004) | Tobramycin MIC + Peptide (bacterial isolates; A. baumannii ABI001) | Tobramycin MIC + Peptide (bacterial isolates; P. aeruginosa PA022) | Peptide MIC Alone (bacterial isolates; S. aureus SA025 (also SA025 MRSA), Tobramycin section) | Peptide MIC Alone ([1]; Tobramycin section) | Tobramycin MIC + Peptide ([2]; A. baumannii ABI001) | Tobramycin MIC + Peptide ([2]; P. aeruginosa PA022)
32: Peptide MIC ([2]; E. faecium, combination with Mupirocin, in µg/mL)
